How the values were obtained:
[1] = blood parameters in high-fat diet-fed mice; assay type: in vivo; conditions: HF diet-fed C57BL/6J mice; for blood glucose / circulating TG (triglyceride) levels: week 12; for circulating TG (triglyceride) levels: vs HF group; for Blood profiles: FFA (plasma free fatty acid) / Blood profiles: Insulin / Blood profiles: Leptin / Blood profiles: TC (total cholesterol): mean ± SE, n=9
Description: For part 2, C57BL/6J mice (4 weeks old) were obtained from the National Laboratory Animal Breeding and Research Center. The mice were divided randomly into two groups after 7 days acclimation. […] The compositions of the experimental diets are given in previous studies. After 8 weeks, the high-fat treated mice were randomly subdivided into four groups (n=9) including PTA1 (0.06 g/kg/day), PTA2 (0.12 g/kg/day) or rosiglitazone (Rosi; 1% methylcellulose, 10 mg/kg body weight) (GlaxoSmithKline) or vehicle and treated by oral gavage one time per day from the 9th to 12th weeks, while the mice were still on the high-fat diet, whereas the CON and high-fat control (HF) mice were treated with vehicle only. At the end, food was withheld from the animals (from 10 p.m. to 10 a.m.). The next day, the mice were sacrificed for blood and tissue collection and analysis. Livers, skeletal muscles, and white adipose tissues (WATs) (including epididymal, mesenteric, and retroperitoneal WAT) were weighed and excised, followed by immediate freezing, and kept at −80° C. for target gene analysis. Heparin (30 units/mL) (Sigma) was added to blood samples. Plasma samples were collected within 30 min by centrifugation at 1600 g for 15 min at 4° C. Plasma was obtained for insulin and leptin assay.
Blood samples (0.8 mL) were collected from the retro-orbital sinus of fasted mice, and the glucose level was analyzed by the glucose oxidase method (model 1500; Sidekick Glucose Analyzer; YSI Inc., Yellow Springs, Ohio, USA). Plasma triglycerides (TG), total cholesterol (TC), and free fatty acids (FFA) were measured using commercial assay kits according to the manufacturer's directions (Triglycerides-E test, Cholesterol-E test, and FFA-C test, Wako Pure Chemical, Osaka, Japan). The levels of insulin and leptin in blood were analyzed by ELISA using a commercial assay kit according to the manufacturer's directions (mouse insulin ELISA kit, Sibayagi, Gunma, Japan; and mouse leptin ELISA kit, Morinaga, Yokohama, Japan).

[2] = oral glucose tolerance test (OGTT) in normal mice; assay type: in vivo; conditions: 12 h fasted ICR mice; 0.2, 0.4 and 0.8 g/kg orally 30 min before oral glucose load 1 g/kg; from 30 to 120 min
Description: For part 1, an oral glucose tolerance test (OGTT) was performed on 12 h fasted ICR mice (n=5) that were allowed access to 0.2, 0.4, and 0.8 g/kg PTA or an equivalent amount of vehicle (water), which were given orally 30 min before an oral glucose load (1 g/kg body wt). The control group was given glucose, whereas the normal group was not. Blood samples were collected from the retro-orbital sinus of fasted mice at the time of the glucose administration (0) and every 30 min until 120 min after glucose administration.

11β-HSD1 = assay: semiquantitative RT-PCR, liver 11β-HSD1 mRNA; assay type: in vivo, C57BL/6J mice; conditions: HF diet-fed mice, normalized to GAPDH, vs HF group
Description: (§1) For part 2, C57BL/6J mice (4 weeks old) were obtained from the National Laboratory Animal Breeding and Research Center. The mice were divided randomly into two groups after 7 days acclimation. The control (CON) group (n=9) was fed a low-fat diet (diet 12450B, Research Diets, Inc., New Brunswick, N.J., USA), whereas the experimental group was fed a 45% high-fat diet (diet 12451, Research Diets, Inc.) for 12 weeks. The compositions of the experimental diets are given in previous studies. […]
(§2) Total RNA from the liver tissue was isolated with a Trizol reagent (Molecular Research Center, Inc., Cincinnati, Ohio, USA) according to the manufacturer's directions. The integrity of the extracted total RNA was examined by 2% agarose gel electrophoresis, and the RNA concentration was determined by ultraviolet (UV) light absorbency at 260 and 280 nm (spectrophotometer U-2800A, Hitachi). […] The relative density of the band was evaluated using AlphaDigiDoc 1201 software (Alpha Innotech Co., San Leandro, Calif., USA). All of the measured PCR products were normalized to the amount of cDNA of GAPDH in each sample. […]

PEPCK = assay: semiquantitative RT-PCR, liver PEPCK mRNA; assay type: in vivo, C57BL/6J mice; conditions: HF diet-fed mice, normalized to GAPDH, vs HF group
Description: as §1, §2

DGAT2 = assay: semiquantitative RT-PCR, liver DGAT2 mRNA; assay type: in vivo, C57BL/6J mice; conditions: HF diet-fed mice, normalized to GAPDH, vs HF group
Description: as §1, §2

apo C-III = assay: semiquantitative RT-PCR, liver apo C-III mRNA; assay type: in vivo, C57BL/6J mice; conditions: HF diet-fed mice, normalized to GAPDH, vs HF group
Description: as §1, §2

[3] = PTA1 0.06 g/kg/day oral gavage 4 weeks
[4] = PTA2 0.12 g/kg/day oral gavage 4 weeks

## C[C@@H]1CC[C@]2(C(=O)O)CC[C@]3(C)C(=CC[C@@H]4[C@@]5(C)C[C@@H](O)[C@H](O)C(C)(C)[C@@H]5CC[C@]43C)[C@@H]2[C@]1(C)O [PTA, tormentic acid]
[1]; [3]
  blood glucose: 96.3 mg/dL
  circulating TG (triglyceride) levels: decreased
  Blood profiles: FFA (plasma free fatty acid): 2.15 ± 0.35 mequiv/L
  Blood profiles: Insulin: 101.7 ± 15.2 μU/mL
  Blood profiles: Leptin: 2.35 ± 0.092 ng/mL
  Blood profiles: TC (total cholesterol): 167.0 ± 6.1 mg/dL
[1]; [4]
  blood glucose: 94.8 mg/dL
  circulating TG (triglyceride) levels: decreased
  Blood profiles: FFA (plasma free fatty acid): 1.88 ± 0.29 mequiv/L
  Blood profiles: Insulin: 73.9 ± 11.8 μU/mL
  Blood profiles: Leptin: 1.78 ± 0.094 ng/mL
  Blood profiles: TC (total cholesterol): 153.7 ± 6.9 mg/dL
[2]
  levels of blood glucose (OGTT): decreased
11β-HSD1; PTA1 0.06 g/kg/day 4 weeks
  mRNA level of 11β-HSD1 in liver: significantly decrease
11β-HSD1; PTA2 0.12 g/kg/day 4 weeks
  mRNA level of 11β-HSD1 in liver: significantly decrease
PEPCK; PTA1 0.06 g/kg/day 4 weeks
  mRNA level of PEPCK in liver: significantly decrease
PEPCK; PTA2 0.12 g/kg/day 4 weeks
  mRNA level of PEPCK in liver: significantly decrease
DGAT2; PTA1 0.06 g/kg/day 4 weeks
  mRNA level of DGAT2 in liver: significantly decrease
DGAT2; PTA2 0.12 g/kg/day 4 weeks
  mRNA level of DGAT2 in liver: significantly decrease
Apo C-III; PTA1 0.06 g/kg/day 4 weeks
  mRNA level of apo C-III in liver: significantly decrease
Apo C-III; PTA2 0.12 g/kg/day 4 weeks
  mRNA level of apo C-III in liver: significantly decrease
